Our source for the IC50, Activity and inhibition values is ChEMBL document CHEMBL1159256, “Acetylcholinesterase inhibition by territrem B derivatives” (J Nat Prod, 1995).

Assay [1] has as its target Acetylcholinesterase (Electrophorus electricus, UniProt O42275). Kind of assay: (§1) Inhibition of electric eel AChE by Ellman's method. Conditions: read-out: I50.
Assay [2] has as its target Acetylcholinesterase (Electrophorus electricus) (UniProt O42275). The assay is described as §1.

Active and inactive are the calls of the source. The calls are words filed in the database; no cut-off is given here.

Sequence of Acetylcholinesterase (O42275 whole entry): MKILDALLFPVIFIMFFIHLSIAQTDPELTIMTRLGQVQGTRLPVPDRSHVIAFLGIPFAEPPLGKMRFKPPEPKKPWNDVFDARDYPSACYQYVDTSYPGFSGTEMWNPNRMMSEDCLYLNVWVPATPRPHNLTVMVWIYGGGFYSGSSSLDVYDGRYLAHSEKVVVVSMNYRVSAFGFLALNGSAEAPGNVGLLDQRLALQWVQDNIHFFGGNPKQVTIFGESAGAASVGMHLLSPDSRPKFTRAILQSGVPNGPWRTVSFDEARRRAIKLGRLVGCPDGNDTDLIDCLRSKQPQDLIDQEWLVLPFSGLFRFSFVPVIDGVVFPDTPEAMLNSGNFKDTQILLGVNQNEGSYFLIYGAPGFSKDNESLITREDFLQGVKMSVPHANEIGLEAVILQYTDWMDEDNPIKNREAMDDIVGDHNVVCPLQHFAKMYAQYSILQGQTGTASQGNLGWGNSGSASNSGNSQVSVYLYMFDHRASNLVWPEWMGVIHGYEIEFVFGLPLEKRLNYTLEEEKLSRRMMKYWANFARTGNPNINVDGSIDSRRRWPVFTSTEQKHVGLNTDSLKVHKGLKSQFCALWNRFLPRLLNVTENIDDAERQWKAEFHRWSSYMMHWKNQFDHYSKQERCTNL
Sequence of Acetylcholinesterase (Electrophorus electricus) (O42275 24-633 limits assumed): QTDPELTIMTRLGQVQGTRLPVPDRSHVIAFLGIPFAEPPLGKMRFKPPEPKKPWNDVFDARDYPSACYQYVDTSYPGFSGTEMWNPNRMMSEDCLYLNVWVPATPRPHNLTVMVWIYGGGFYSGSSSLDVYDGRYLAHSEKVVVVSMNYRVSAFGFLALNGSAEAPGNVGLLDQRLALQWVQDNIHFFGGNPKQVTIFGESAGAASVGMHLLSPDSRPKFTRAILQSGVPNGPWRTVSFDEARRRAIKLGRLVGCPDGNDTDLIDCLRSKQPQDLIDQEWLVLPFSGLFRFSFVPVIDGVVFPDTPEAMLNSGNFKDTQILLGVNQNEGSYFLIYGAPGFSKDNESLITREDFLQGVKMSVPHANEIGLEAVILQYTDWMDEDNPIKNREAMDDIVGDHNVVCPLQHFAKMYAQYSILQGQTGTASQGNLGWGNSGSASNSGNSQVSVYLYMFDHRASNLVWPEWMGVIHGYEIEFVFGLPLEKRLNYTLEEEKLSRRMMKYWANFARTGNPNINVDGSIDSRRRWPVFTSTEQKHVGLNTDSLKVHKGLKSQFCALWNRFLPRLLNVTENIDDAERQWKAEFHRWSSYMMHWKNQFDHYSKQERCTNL

Regarding `COc1cc(-c2cc3c(c(=O)o2)C[C@]2(O)[C@@]4(C)C(=O)CCC(C)(C)[C@]4(O)CC[C@@]2(C)O3)cc(OC)c1OC` [2,3-DIHYDROTERRITREM B], the IC50 in assay [1] was found to be 2200 nM.

Take `COc1cc(CCC2=C(C(=O)O)C[C@]3(O)[C@@]4(C)C(=O)CCC(C)(C)[C@]4(O)CC[C@@]3(C)O2)cc(OC)c1OC`: the outcome in assay [2] was inactive. As to `COc1cc(-c2cc3c(c(=O)o2)C[C@]2(O)[C@@]4(C)C(=O)C=CC(C)(C)[C@]4(O)CC[C@@]2(C)O3)cc(OC)c1OC` [TERRITREM B], the IC50 in assay [1] is 260 nM. The same molecule returned an inhibition in assay [2] (concentration not given here) of 50%.

For the molecule `COc1cc(-c2cc3c(c(=O)o2)C[C@]2(O)[C@@]4(C)C(=O)[C@H]5O[C@H]5C(C)(C)[C@]4(O)CC[C@@]2(C)O3)cc(OC)c1OC` [2,3-EPOXYTERRITREM B], the IC50 in assay [1] was 170 nM.

Consider `COc1cc(-c2cc3c(c(=O)o2)C[C@]2(O)[C@@]4(C)C(=O)C=C[C@](C)(CI)[C@]4(O)CC[C@@]2(C)O3)cc(OC)c1OC` [4BETA-IODOMETHYL-4BETA-DEMETHYL-TERRITREM B], for which the IC50 in assay [1] was determined as 290 nM. As to `COc1cc(-c2cc3c(c(=O)o2)C[C@]2(O)[C@@]4(C)[C@H](O)C=CC(C)(C)[C@]4(O)CC[C@@]2(C)O3)cc(OC)c1OC` [1-DIHYDROTERRITREM B], the IC50 in assay [1] came to 79000 nM.
